# Target: T1, LXRβ (Homo sapiens, UniProt P55055)
# T1 construct: Co-transfection expression plasmids, comprising full-length LXRα (pCMX-h LXRα[…] or LXRβ (pCMX-hLXRβ)); expressed in transfected cells; host or cells: CV-1 African Green Monkey Kidney Cells
# T1 sequence (P55055 1-460): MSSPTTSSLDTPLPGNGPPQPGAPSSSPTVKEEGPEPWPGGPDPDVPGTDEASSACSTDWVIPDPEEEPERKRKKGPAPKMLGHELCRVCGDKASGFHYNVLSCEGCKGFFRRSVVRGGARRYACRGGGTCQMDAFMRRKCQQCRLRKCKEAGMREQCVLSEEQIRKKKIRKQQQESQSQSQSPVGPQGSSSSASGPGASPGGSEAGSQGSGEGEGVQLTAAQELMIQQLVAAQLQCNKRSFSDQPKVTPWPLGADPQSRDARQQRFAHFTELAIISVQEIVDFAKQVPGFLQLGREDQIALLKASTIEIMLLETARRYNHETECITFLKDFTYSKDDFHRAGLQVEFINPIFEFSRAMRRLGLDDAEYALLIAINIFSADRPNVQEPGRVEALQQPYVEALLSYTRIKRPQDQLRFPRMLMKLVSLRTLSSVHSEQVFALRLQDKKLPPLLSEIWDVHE
# T1 sequence (P19793 1-462 partner): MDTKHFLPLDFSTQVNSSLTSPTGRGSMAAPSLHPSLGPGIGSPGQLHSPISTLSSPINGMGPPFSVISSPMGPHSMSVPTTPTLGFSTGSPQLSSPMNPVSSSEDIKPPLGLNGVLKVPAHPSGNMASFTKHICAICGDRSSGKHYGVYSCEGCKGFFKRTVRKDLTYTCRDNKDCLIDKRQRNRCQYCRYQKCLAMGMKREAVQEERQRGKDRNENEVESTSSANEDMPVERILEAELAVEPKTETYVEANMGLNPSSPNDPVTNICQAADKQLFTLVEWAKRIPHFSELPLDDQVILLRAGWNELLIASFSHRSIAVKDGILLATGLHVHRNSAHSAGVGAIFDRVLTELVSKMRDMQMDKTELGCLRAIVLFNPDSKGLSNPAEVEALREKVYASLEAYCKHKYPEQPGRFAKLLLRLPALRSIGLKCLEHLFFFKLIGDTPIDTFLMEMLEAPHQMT
# Assay: Co-transfection assay (LXRE luciferase reporter), LXRβ
# Type: cell-based
# Settings: for EC50: CV-1 cells transfected with pCMX-hLXRβ and LXREx1-Tk-Luciferase, 20 hours incubation; for Emax: LXRβ co-transfection, relative to high control 1-(2,4-difluorobenzyl)-2-oxo-6-(4-phenoxyphenyl)-4-(trifluoromethyl)-1,2-dihydropyridine-3-carbonitrile, read-out: % Efficacy
# Procedure, shortened: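 CV-1 cells transiently co-transfected with full-length human LXRβ expression plasmid, LXREx1-Tk-luciferase reporter and β-galactosidase control, then exposed to compound for 20 h at 37 °C. Luciferase luminescence read; EC50 from 11-point, ½-log dose–response fit, efficacy relative to high-control agonist maximum.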
Structure (SMILES),EC50 [nM],Emax [%]
"Cc1nc(-c2ccc(OC(F)F)cc2)c(-c2cc(-c3ccc(CO)c(S(C)(=O)=O)c3)ccc2-n2cc(C(F)(F)F)nc2C)o1 [Example 625, (3′-(4-(4-(difluoromethoxy)phenyl)-2-methyloxazol-5-yl)-4′-(2-methyl-4-(trifluoromethyl)-1H-imidazol-1-yl)-3-(methylsulfonyl)-[1,1′-biphenyl]-4-yl)methanol]",73,117
"Cc1nc(C(F)F)c(C)n1-c1ccc(-c2cc(F)c(CO)c(S(C)(=O)=O)c2)cc1-n1nncc1-c1ccc(OC(F)(F)F)cc1 [Example 233, (4′-(4-(difluoromethyl)-2,5-dimethyl-1H-imidazol-1-yl)-3-fluoro-5-(methylsulfonyl)-3′-(5-(4-(trifluoromethoxy)phenyl)-1H-1,2,3-triazol-1-yl)-[1,1′-biphenyl]-4-yl)methanol]",1340,92
"COc1ccc(-c2cnnn2-c2cc(-c3cccc(S(C)(=O)=O)c3)ccc2-n2cc(C(F)(F)F)nc2C)c(OC)c1 [Example 93, 5-[2,4-bis(methyloxy)phenyl]-1-{3′-(methylsulfonyl)-4-[2-methyl-4-(trifluoromethyl)-1H-imidazol-1-yl]biphenyl-3-yl}-1H-1,2,3-triazole]",2150,40
"CCC(F)(F)c1cn(-c2ccc(-c3cc(F)c(CO)c(S(C)(=O)=O)c3)cc2-c2ocnc2-c2ccc(OC(F)(F)F)cc2)c(C)n1 [Example 363, {4′-[4-(1,1-difluoropropyl)-2-methyl-1H-imidazol-1-yl]-3-fluoro-5-(methylsulfonyl)-3′-(4-{4-[(trifluoromethyl)oxy]phenyl}-1,3-oxazol-5-yl)biphenyl-4-yl}methanol]",288,58
"Cc1nc(C(F)(F)F)cn1-c1ccc(-c2cccc(S(C)(=O)=O)c2)cc1-n1nncc1C(C)(F)c1ccc(Cl)cc1 (stereo not drawn) [Example 224, 5-(1-(4-chlorophenyl)-1-fluoroethyl)-1-(4-(2-methyl-4-(trifluoromethyl)-1H-imidazol-1-yl)-3′-(methylsulfonyl)-[1,1′-biphenyl]-3-yl)-1H-1,2,3-triazole]",411,57
"CNS(=O)(=O)c1cccc(-c2ccc(-n3cc(C(C)(F)F)nc3C)c(-n3nncc3-c3ccc(OC(F)(F)F)cc3)c2)c1 [Example 175, 4′-[4-(1,1-difluoroethyl)-2-methyl-1H-imidazol-1-yl]-N-methyl-3′-(5-{4-[(trifluoromethyl)oxy]phenyl}-1H-1,2,3-triazol-1-yl)biphenyl-3-sulfonamide]",315,79
"Cc1nc(-c2cc(-c3cccc(S(C)(=O)=O)c3)ccc2-n2cc(C(F)(F)F)nc2C)c(-c2ccc(F)c(Cl)c2)o1 [Example 510, 5-(3-chloro-4-fluorophenyl)-2-methyl-4-(4-(2-methyl-4-(trifluoromethyl)-1H-imidazol-1-yl)-3′-(methylsulfonyl)biphenyl-3-yl)oxazole]",61,76
"Cc1nc(-c2cc(-c3ccc(C)c(S(C)(=O)=O)c3)ccc2-n2cc(C(F)(F)F)nc2C)c(-c2ccc(OC(F)F)c(F)c2)o1 [Example 435, 5-(4-(difluoromethoxy)-3-fluorophenyl)-2-methyl-4-(4′-methyl-4-(2-methyl-4-(trifluoromethyl)-1H-imidazol-1-yl)-3′-(methylsulfonyl)biphenyl-3-yl)oxazole]",69,87
"Cc1nc(C(F)(F)F)cn1-c1ccc(-c2cccc(C(C)(C)C(N)=O)c2)cc1-n1nncc1C(=O)c1ccc(C(F)(F)F)cc1 [Example 135, 2-methyl-2-{4′-[2-methyl-4-(trifluoromethyl)-1H-imidazol-1-yl]-3′-(5-{[4-(trifluoromethyl)phenyl]carbonyl}-1H-1,2,3-triazol-1-yl)biphenyl-3-yl}propanamide]",886,70

# Source: patent publication US9834542B2, “LXR modulators” (BRISTOL-MYERS SQUIBB COMPANY, priority 2013, dated 2017)
